In patent EP1005865A1, “A anti-allergy anti-inflammatory composition comprising nimesulide and cetirizine” (priority 1998, dated 2000):
Counter-ions that a name gives are not always drawn.

How the values were obtained:
[1] = test system: chronic hives patients; settings: daily regimen of 10mg of cetirizine; cited from earlier work
[2] = test system: Histamine induced bronchoconstrictor in guinea pigs; experiment: Histamine-induced bronchospasm in anaesthetised, ventilated guinea pig (insufflation pressure); settings: for Histamine Challenge (% Insufflation pressure) 5 µg/kg: histamine 5 µg/kg iv, control 187.42 ± 22.49; for Histamine Challenge (% Insufflation pressure) 10 µg/kg: histamine 10 µg/kg iv, control 239.07 ± 43.64
[3] = test system: Leukotriene D4 (LTD4) induced bronchoconstrictor in guinea pigs; experiment: Leukotriene D4-induced bronchospasm in guinea pig (insufflation pressure); settings: for % Insufflation pressure after LTD4 1 µg/kg LTD4: control 186.02 ± 52.58; for % Insufflation pressure after LTD4 2 µg/kg LTD4: control 246.56 ± 14.33; for decrease in % insufflation pressure, LTD4-induced bronchoconstriction: matches the 1 µg/kg LTD4 column of Table 3
[4] = test system: Antigen (egg albumin) induced bronchoconstrictor in guinea pigs; experiment: Egg albumin (antigen)-induced bronchospasm in sensitized guinea pig (insufflation pressure)
Procedure: The animals were stabilized for 10 minutes.
Cetirizine was dissolved in deionized water. […] Histamine and d-tubocurarine chloride were dissolved in saline and Leukotriene D4 was diluted with Methanol and Ammonium Acetate buffer in a ratio of 70 : 30 at a pH of 5.4.
Guinea pigs were sensitized by injections of 100 mg of Egg albumin ip and 100 mg Egg albumin sc in saline. Guinea pigs were used after day 21st.

[5] = test system: PDE IV; settings: PDE IV inhibitor in vitro, reported; cited from earlier work
[6] = cited from earlier work
[7] = Cetrizine 1.16 mg/kg p.o 2 hours before challenge
[8] = Cetrizine 1.16 mg/kg p.o 2 hours before challenge, n 1
[9] = Nimesulide 11.66 mg/kg p.o 2 hours before challenge
[10] = Nimesulide 23.32 mg/kg p.o 2 hours before challenge

O=C(O)COCCN1CCN(C(c2ccccc2)c2ccc(Cl)cc2)CC1 (centres unmarked) [Cetrizine, Cetirizine dihydrochloride]
chronic hives patients reporting excellent results [1]: ~70% | decrease in % insufflation pressure, histamine induced bronchoconstriction ([2]; Cetirizine 1.16 mg/kg p.o, matches the 5 µg/kg histamine column of Table 1): 62.71% | Histamine Challenge (% Insufflation pressure) 5 µg/kg [2, 7]: 37.29 ± 6.76 % | Histamine Challenge (% Insufflation pressure) 10 µg/kg [2, 7]: 68.35 ± 18.20 % | effect on histamine induced increase in insufflation pressure ([2]; histamine 5 and 10 µg/kg, Cetirizine 1.66 mg/kg (so in the source)): significantly reduced | % Insufflation pressure after LTD4 1 µg/kg LTD4 [3, 8]: 57.14% | % Insufflation pressure after LTD4 2 µg/kg LTD4 [3, 8]: 92.85% | effect on LTD4-induced contractions ([3]; Cetirizine 1.16 mg/kg): significantly blocked | decrease in % insufflation pressure, LTD4-induced bronchoconstriction ([3]; Cetirizine 1.16 mg/kg p.o): 42.86%

CS(=O)(=O)Nc1ccc([N+](=O)[O-])cc1Oc1ccccc1 [Nimesulide]
decrease in % insufflation pressure, egg albumin induced bronchoconstriction ([4]; Nimesulide 11.66 mg/kg p.o, matches the 1 mg/kg egg albumin column of Table 2): 90.24% | effect on egg albumin induced insufflation pressure ([4]; egg albumin 1 mg/kg, 2 mg/kg, Nimesulide 11.66 mg/kg): significantly reduced | % Insufflation pressure after egg albumin challange 1 mg/kg ([4]; sensitized guinea pigs, egg albumin 1 mg/kg, Nimesulide 11.66 mg/kg p.o, control 111.88 ± 10.53): 9.76 ± 4.17 % | % Insufflation pressure after egg albumin challange 2 mg/kg ([4]; sensitized guinea pigs, egg albumin 2 mg/kg, Nimesulide 11.66 mg/kg p.o, control 196.90 ± 32.98): 19.39 ± 4.32 % | IC50 [5]: ~40 µM | effect on histamine induced increase in insufflation pressure ([2]; Nimesulide single dose, S, 11.66 mg/kg and double dose, D, 23.32 mg/kg): no significant inhibitory effect | antihistaminic effect, histamine induced bronchoconstriction ([2]; Nimesulide, dose not given): no antihistaminic effect | Histamine Challenge (% Insufflation pressure) 5 µg/kg [2, 9]: 171.07 ± 23.76% | Histamine Challenge (% Insufflation pressure) 5 µg/kg [2, 10]: 163.15 ± 43.27% | Histamine Challenge (% Insufflation pressure) 10 µg/kg [2, 9]: 236.47 ± 40.40% | Histamine Challenge (% Insufflation pressure) 10 µg/kg [2, 10]: 205.10 ± 31.33% | % Insufflation pressure after LTD4 1 µg/kg LTD4 [3, 9]: 192.45 ± 45.53% | % Insufflation pressure after LTD4 1 µg/kg LTD4 [3, 10]: 38.99 ± 19.79 % | % Insufflation pressure after LTD4 2 µg/kg LTD4 [3, 9]: 197.02 ± 37.76% | % Insufflation pressure after LTD4 2 µg/kg LTD4 [3, 10]: 140.07 ± 61.15 % | effect on insufflation pressure, LTD4-induced contractions ([3]; Nimesulide 11.66 mg/kg): no effect | decrease in % insufflation pressure, LTD4-induced bronchoconstriction ([3]; Nimesulide 23.32 mg/kg p.o): 61.0% | effect on LTD4-induced contractions ([3]; double dose Nimesulide 23.32 mg/kg): potent inhibitory effect

O=C(O)c1cc(=O)c2c(OCC(O)COc3cccc4oc(C(=O)O)cc(=O)c34)cccc2o1 [cromolyn sodium]
half-life ([6]; inhaled, taken 4 times daily): 45 to 100 min | fraction of an oral dose absorbed ([6]; oral dose): about 1%
